Data: patent US12616759B2, “Uses of labeled HSP90 inhibitors” (Sloan-Kettering Institute for Cancer Research, priority 2011, dated 2026)
Like-named read-outs stand apart in the source and are kept apart here.

What was measured:
[1] = system: MDA-MB-468 tumors; experiment: efficacy in MDA-MB-468 xenografts; type: in vivo, mice; settings: for anti-tumor effect: 75 mg/kg, 5 weeks
Description: Efficacy Studies. Mice (n=5) bearing MDA-MB-468 tumors reaching a volume of 100-150 mm^3 were treated i.p. (i.p.) using different doses and schedules, as indicated. Tumor volume was determined by measurement with Vernier calipers, and tumor volume was calculated as the product of its length×width^2×0.4. Tumor volume was expressed on indicated days as the median tumor volume±SD indicated for groups of mice. Percent (%) tumor growth inhibition values were measured on the final day of study for drug-treated compared with vehicle treated mice and are calculated as 100×{1−[(TreatedFinal day−TreatedDay 1)/(ControlFinal day−ControlDay 1)]}. Tumor regression values were determined by calculating the ratio of median tumor volumes at the time when treatment was initiated to median tumor volume on the final day of study for a given treatment group. Percent (%) tumor regression is 100×[1−(TreatedFinal day/TreatedDay 1)].

[2] = system: circulating tumor cells; experiment: number of circulating tumor cells in blood of patient after PU-H71; type: in vivo, human; settings: 24 h after 20 mg/m2
Description: Circulating tumor cells (CTCs) are cells that have detached from a primary tumor and circulate in the bloodstream. CTCs may constitute seeds for subsequent growth of additional tumors (metastasis) in different tissues.

[3] = system: oncogenic HSP90; experiment: PU-H71-FITC2 binding to pancreatic and breast cancer cell lines relative to HL-60 versus viability
[4] = system: tumor HSP90; settings: for available HSP90 tumor sites occupied: 24 h
[5] = system: Akt, onco-proteins in MDA-MB-468 tumors; experiment: pharmacodynamic Western blot of MDA-MB-468 tumors; type: in vivo, mice
Description: Pharmacodynamic analyses. For protein analysis, tumors were homogenized in SDS lysis buffer (50 mM Tris, pH 7.4, 2% SDS) and subjected to Western blot analysis. Protein concentrations were determined using the BCA kit (Pierce) according to the manufacturer's instructions. Protein lysates (20-100 μg) were electrophoretically resolved by SDS/PAGE, transferred to nitrocellulose membrane, and probed with the indicated primary antibodies: Anti-Hsp90 from mouse (1:500, SPA-830; Stressgen), anti-Akt from rabbit (1:500, 9272; Cell Signaling), anti-phospho-Akt (Ser 473) from rabbit (1:500, 9271S; Cell Signaling), anti-PARP (p85 fragment) from rabbit (1:250, G7341; Promega). Membranes were then incubated with a 1:5,000 dilution of a peroxidase-conjugated corresponding secondary antibody. Equal loading of the protein samples was confirmed by parallel Western blots for β-actin (1:5,000, ab8227-50; Abcam). Detection was performed using the ECL Enhanced Chemiluminescence Detection System (Amersham Biosciences) according to the manufacturer's instructions.

[6] = biological target: 359 kinases; experiment: scanMAX kinase screen (Ambit); type: binding; settings: 10 μM
[7] = system: MDA-MB-468 tumors; settings: 75 mg/kg, reference 100; cited from earlier work
[8] = system: breast cancer tumor specimens; experiment: ex vivo fresh tissue sections of breast cancer patient tumors, apoptosis; type: cell-based, human
Description: Test ex vivo the sensitivity of BC samples to PU-H71.
Ex vivo sensitivity examination: Immediately following surgical removal of the mastectomy specimen the tissue is transported to the Tissue Procurement Services (TPS) area of the Pathology suite. Once the lesion is located, tissue is harvested under sterile conditions. The specimen size removed for evaluation is typically 5-10 mm×5-10 mm. Every effort is made to sample the most viable area. Distant from the lesion, a specimen of equivalent size is removed representative of normal breast epithelial tissue. Both specimens are placed in minimal essential media (MEM) with 1% penicillin/streptomycin. A small portion of the lesion and the entire piece of normal breast epithelial tissue undergo a “snap” freeze for future molecular evaluation by WB. The remaining portion of the lesion (mastectomy) is processed for pathological evaluation. For every lesion pathology provides IHC for receptor status, proliferation markers, epithelial markers and one hematoxylin/eosin (H&E) stained slide accompanied by 10 unstained to be further assessed for non-standard biomarkers (e.g. pAKT, BclxL, HSP90 and Hsp70).
From preliminary analyses we have learned that fresh tissue slicing provides a quick and more efficient ex vivo method for HSP90 inhibition evaluation than primary cell isolation. In addition, it preserves the cancer cells in the endogenous environment of the surrounding tissue. This is important since the interaction between stromal cells and tumor cells is known to play a major role in cancer growth and progression. In this method, the tissue (i.e. lesion) is placed in a plastic mold and embedded in 6% agarose. The agarose-embedded tissue is then mounted on the stage of the Vibratome that is submersed in a chilled reservoir (for tissue preservation) containing MEM with 1% penicillin/streptomycin. The tissue is then sliced using metal blades producing serial sections of the lesion that are 200 μm thick. Each section (minus the surrounding agarose-embedding media) is immediately placed in a 24-well tissue culture plate containing MEM with 1% penicillin/streptomycin. From a 5 mm×5 mm piece of tissue approximately 25 sections are produced. This allows for replicate analyses of tissue sections treated with a minimum of 4 doses of the HSP90 inhibitor and one with vehicle only. Replicates can be assayed by both IHC as well as viability assays (automatic plate reader or cytospin preparation) once tissue section undergoes enzymatic dissociation by brief exposure to dispase.
To date, forty-two specimens encompassing all BC subtypes have been acquired. Out of these, nine were of receptor status negative. […] Treatment of triple negative infiltrating ductal carcinoma (IDC) with PU-H71 attained, in a dose-dependent manner, apoptosis of both the primary tumors and lymph node metastases.

[9] = several HER2+, triple-negative and ER+ breast cancers

Question: Which results are given for `CC(C)NCCCn1c(Sc2cc3c(cc2I)OCO3)nc2c(N)ncnc21` [PU-H71]?
Answer: tumor volume at end of treatment ([1]; 5 mg/kg arm): 139±66 mm^3; tumor growth inhibition (TGI) ([1]; 5 mg/kg i.p. 3×week, 7 weeks): 63%; tumor growth inhibition (TGI) ([1]; 25 mg/kg i.p. 3×week, 7 weeks): 82%; tumor growth inhibition (TGI) ([1]; 50 mg/kg i.p. 3×week, 7 weeks): 99%; regression ([1]; 75 mg/kg i.p. 3×week, 7 weeks): 100%; anti-tumor effect ([1]; 1×week): significant tumor growth inhibition; anti-tumor effect ([1]; 2×week): tumor regressions; average occupancy of tumor HSP90 sites needed for tumor regression and cure ([1]; averaged over the time of treatment): over 80%; average occupied sites that may still lead to partial response ([1]; over the time of treatment): ≥ 15%; average tumor concentration needed for tumor regression and cure ([1]; over the time of treatment): 5 µM; average tumor concentration that may still lead to partial response ([1]; over the time of treatment): ≥ 0.5 µM; drop in the number of CTCs in the blood [2]: 6 fold; sensitivity of HL-60 leukemia cells [3]: resistant; available HSP90 tumor sites occupied ([4]; 5 mg/kg): 12.1%; available HSP90 tumor sites occupied ([4]; 25 mg/kg): 57.7%; available HSP90 tumor sites occupied ([4]; 50 mg/kg): 88.7%; available HSP90 tumor sites occupied ([4]; 75 mg/kg): 92.7%; BMAX, maximum HSP90 per gram of tumor ([4]; 24 h post-injection, one gram of tumor): 160.7×10^−3 nmols; BMAX as HSP90 molecules per gram of tumor ([4]; one gram of tumor): 960×10^11 HSP90 molecules; Akt degradation, decrease ([5]; 5 mg/kg 3×week, 24 h after last dose): 57%; depletion of onco-proteins, level decrease ([5]; 1×week schedule, 24 h and 96 h after last dose): 95%; kinase hits [6]: Only SNARK (NUAK family SNF1-like kinase 2) (red dot on the kinase tree) appears as a potential low affinity kinase hit; anti-tumor effect [7]: tumor regression and cures; effect on normal and benign tissue ([8]; 48 hour exposure): remained unaltered; apoptosis ([8]; TNBC partly resistant group, 1-2.5 uM): ~50%; apoptosis ([8]; TNBC sensitive group, 1 uM): 100%; apoptosis ([8]; TNBC very sensitive group, 0.5 uM): 100%; apoptosis ([8]; resistant, PT #14): no apoptosis noted at any of the tested concentrations; concentration inducing about 50% apoptosis [8, 9]: 0.05 µM; concentration inducing about 100% apoptosis [8, 9]: 0.5 µM
